# Reference: PubChem BioAssay AID1199 (EPA DSSTox, 2008)
# Active and inactive are the calls of the source.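 The calls were made as follows: active = a tumour-causing dose and a tumour site recorded for mice in at least one sex group; inconclusive = only government mouse studies exist and were judged inadequate; inactive = mouse studies exist but none gave tumours.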
# Test system: mouse carcinogenicity bioassay, TD50 from CPDB
# Experiment: DSSTox (CPDBAS) Carcinogenic Potency Database Summary Mouse Bioassay Results
# Settings: not given
# Source text: The Carcinogenic Potency Database (CPDB) is a unique and widely used international resource of the results of over 6500 chronic, long-term animal cancer tests on over 1500 chemical substances. The CPDB provides easy access to the bioassay literature, with qualitative and quantitative analyses of both positive and negative experiments that have been published over the past 50 years in the general literature and by the National Cancer Institute/National Toxicology Program. The CPDB standardizes the diverse literature of cancer bioassays that vary widely in protocol, histopathological examination and nomenclature, and in the published author's choices of what information to provide in their papers. Results are reported in the CPDB for tests in rats, mice, hamsters, dogs, and nonhuman primates, and are based on the most positive result among all experiments for each sex-species. The DSSTox CPDBAS (all species) file incorporates data from the CPDB Summary Tables for the full list of over 1500 chemical substances tested in at least one species. Summary bioassay results for Mouse (TD50, tumor sites, male, female, both sexes) are provided in the CPDB Summary Tables and the DSSTox CPDBAS file for over 1000 chemical substances.
# TD50 is a standardized quantitative measure of carcinogenic potency (analogous to an LD50) and is reported in the CPDB Summary Table for each species. Activity Score for actives is computed by mapping of LOG10 (1/TD50_Mouse_mmol) activity values spanning range [MIN, MAX] onto Integer 1-100 Activity Score range, where 100 is highest potency and 1 is lowest: Activity Score = 100 * INTEGER[(log10(1/Activity) - MIN)/(MAX […] MIN)]. If activity is reported but no TD50_Mouse_mmol value is computed, such as for a mixture, the Activity Score is assigned the activity value "50". […] Target sites are reported for each sex-species group with a positive result in the CPDB on the basis of a positive author's opinion for the particular site, using all results from both the general literature and NCI/NTP bioassays. If a chemical has two or more target sites listed, the results may be from different experiments, and a single site may be a target organ in more than one experiment, as well. Blank entry in TargetSites field indicates no results reported.
row,SMILES,Potency [mmol/kg/day]
1,C#CC(C)(C)NC(=O)c1cc(Cl)cc(Cl)c1,0.547
2,O=NN1CCCCC1,0.0114
3,COS(C)(=O)=O,0.289

# Same assay, conditions: TD50_Mouse_Note: TD50 is harmonic mean of more than one positive test; TargetSites_Mouse_Female: esophagus; stomach
row,SMILES,Potency [mmol/kg/day]
1,O=[N+]([O-])c1ccc(-c2cnc3ccccn23)o1,0.118

# Same assay, conditions: TD50_Mouse_Note: TD50 is harmonic mean of more than one positive test; TargetSites_Mouse_Female: harderian gland; stomach
row,SMILES,Potency [mmol/kg/day]
1,C=C(C)CCl,11

# Same assay, conditions: TD50_Mouse_Note: TD50 is harmonic mean of more than one positive test; TargetSites_Mouse_Female: liver
row,SMILES,Potency [mmol/kg/day]
1,ClC(Cl)Br,0.291
2,ClC(Cl)=C(c1ccc(Cl)cc1)c1ccc(Cl)cc1,0.0393
3,CCC1(c2ccccc2)C(=O)NCNC1=O,0.12
4,C[C@@H]1Cc2c(Cl)cc(C(=O)N[C@@H](Cc3ccccc3)C(=O)O)c(O)c2C(=O)O1,0.0159

# Same assay, conditions: TD50_Mouse_Note: TD50 is harmonic mean of more than one positive test; TargetSites_Mouse_Female: liver; lung
row,SMILES,Potency [mmol/kg/day]
1,CCCC/C=N/N(C)C=O,0.0241

# Same assay, conditions: TD50_Mouse_Note: TD50 is harmonic mean of more than one positive test; TargetSites_Mouse_Female: liver; pituitary gland; thyroid gland
row,SMILES,Potency [mmol/kg/day]
1,S=C1NCCN1,0.23

# Same assay, conditions: TD50_Mouse_Note: TD50 is harmonic mean of more than one positive test; TargetSites_Mouse_Female: liver; vascular system
row,SMILES,Potency [mmol/kg/day]
1,Cc1cccn2c1nc1ccc(N)nc12,0.0272

# Same assay, conditions: TD50_Mouse_Note: TD50 is harmonic mean of more than one positive test; TargetSites_Mouse_Female: lung
row,SMILES,Potency [mmol/kg/day]
1,CC(=O)NNC(=O)c1ccncc1,1.84
2,Clc1ccc(C(c2ccc(Cl)cc2)C(Cl)Cl)cc1,0.0959

# Same assay, conditions: TD50_Mouse_Note: TD50 is harmonic mean of more than one positive test; TargetSites_Mouse_Female: lung; vascular system
row,SMILES,Potency [mmol/kg/day]
1,COC(=O)C1=CCCN(C)C1,0.206
2,CCNN,0.0679

# Same assay, conditions: TD50_Mouse_Note: TD50 is harmonic mean of more than one positive test; TargetSites_Mouse_Female: no positive results
row,SMILES,Potency [mmol/kg/day]
1,ClCCOCCCl,0.0818

# Same assay, conditions: TD50_Mouse_Note: TD50 is harmonic mean of more than one positive test; TargetSites_Mouse_Female: stomach
row,SMILES,Potency [mmol/kg/day]
1,OCCBr,0.609
2,C=C(C)CCl,0.858
3,O=Cc1ccccc1,14

# Same assay, conditions: TD50_Mouse_Note: TD50 is harmonic mean of more than one positive test; greater than ten-fold variation among TD50 values for positive res; TargetSites_Mouse_Female: harderian gland; hematopoietic system; liver; lung; mammary gland; ovary; stomach; vascular system
row,SMILES,Potency [mmol/kg/day]
1,C=CC=C,0.257

# Same assay, conditions: TD50_Mouse_Note: TD50 is harmonic mean of more than one positive test; greater than ten-fold variation among TD50 values for positive res; TargetSites_Mouse_Female: hematopoietic system; lung; stomach; urinary bladder
row,SMILES,Potency [mmol/kg/day]
1,O=CNc1nc(-c2ccc([N+](=O)[O-])o2)cs1,0.0824

# Same assay, conditions: TD50_Mouse_Note: TD50 is harmonic mean of more than one positive test; greater than ten-fold variation among TD50 values for positive res; TargetSites_Mouse_Female: lung
row,SMILES,Potency [mmol/kg/day]
1,[O]=[Mo](=[O])=[O],0.0426

# Same assay, conditions: TD50_Mouse_Note: TD50 is harmonic mean of more than one positive test; greater than ten-fold variation among TD50 values for positive res; TargetSites_Mouse_Female: urinary bladder
row,SMILES,Potency [mmol/kg/day]
1,CCOc1ccc(NC(C)=O)cc1,11.9

# Same assay, conditions: TD50_Mouse_Note: TD50 is harmonic mean of more than one positive test; harmonic mean of TD50 includes a value for upper 99% confidence li; TargetSites_Mouse_Female: liver
row,SMILES,Potency [mmol/kg/day]
1,C=CCc1ccc2c(c1)OCO2,0.316

# Same assay, conditions: TD50_Mouse_Note: no positive results
row,SMILES,outcome
1,CC12CCC(CC1)C(C)(C)O2,inactive; no positive results

# Same assay, conditions: TD50_Mouse_Note: no positive results; TargetSites_Mouse_Female: NTP bioassay inadequate
row,SMILES,outcome
1,NC(=O)c1cnccn1,inactive; no positive results

# Same assay, conditions: TD50_Mouse_Note: no positive results; TargetSites_Mouse_Female: no positive results
row,SMILES,outcome
1,[N]=O,inactive
2,C/C=C/C(=O)Oc1c(C(C)CCCCCC)cc([N+](=O)[O-])cc1[N+](=O)[O-] (stereo unspecified),inactive; no positive results
3,NCCCCCCCCCCC(=O)O,inactive; no positive results
4,CC(C)OC(=O)Nc1cccc(Cl)c1,inactive; no positive results
5,CCN(CC)C(=O)Nc1ccc(OCC(O)CNC(C)(C)C)c(C(C)=O)c1 (stereo unspecified),inactive; no positive results
6,O.O.O.O.O.O.O=S(=O)([O-])[O-].[Ni+2],inactive; no positive results
7,Nc1ccc(S(=O)(=O)c2ccc(N)cc2)cc1,inactive; no positive results
8,CC(C)NCC(O)c1ccc(NS(C)(=O)=O)cc1 (stereo unspecified),inactive; no positive results
9,Nc1nc(N)nc(-c2ccccc2)n1,inactive; no positive results
10,C=Cc1cccc(C)c1,inactive; no positive results
11,C/C=C/c1ccc2c(c1)OCO2,inactive; no positive results
12,Clc1ccc2c(c1)C(c1ccccc1)=NCc1nncn1-2,inactive; no positive results
13,COc1ccc(N)c(OC)c1,inactive; no positive results
14,CN1C(=O)C(O)N=C(c2ccccc2)c2cc(Cl)ccc21 (stereo unspecified),inactive; no positive results
15,CC(=O)[O][Sn]([c]1ccccc1)([c]1ccccc1)[c]1ccccc1,inactive; no positive results
16,c1ccc(N=Nc2ccccc2)cc1,inactive; no positive results
17,CC(=O)OC[C@H]1O[C@H](O[C@]2(COC(C)=O)O[C@H](COC(=O)C(C)C)[C@@H](OC(=O)C(C)C)[C@@H]2OC(=O)C(C)C)[C@H](OC(=O)C(C)C)[C@@H](OC(=O)C(C)C)[C@@H]1OC(=O)C(C)C,inactive; no positive results
18,OC(Cn1cncn1)(Cn1cncn1)c1ccc(F)cc1F,inactive; no positive results
19,CCn1cc(C(=O)O)c(=O)c2cc3c(cc21)OCO3,inactive; no positive results
20,COc1ccc([C@@H]2CC(=O)c3c(O)cc(O[C@@H]4O[C@H](CO[C@@H]5O[C@@H](C)[C@H](O)[C@@H](O)[C@H]5O)[C@@H](O)[C@H](O)[C@H]4O)cc3O2)cc1OC,inactive; no positive results
21,ClC1=C(Cl)C(Cl)(Cl)C(Cl)=C1Cl,inactive; no positive results
22,CCN(CC)CC#CC(C)(C)OC(=O)C(O)(c1ccccc1)C1CCCCC1 (stereo unspecified),inactive; no positive results
23,Oc1cccc(O)c1,inactive; no positive results
24,CC1(C)S[C@@H]2[C@H](NC(=O)[C@H](N)c3ccccc3)C(=O)N2[C@H]1C(=O)O,inactive; no positive results
25,Nc1ccccc1,inactive; no positive results

row,SMILES,outcome
1,CC(C)NCC(O)COc1cccc2ccccc12 (stereo unspecified),inactive; no positive results
2,Cc1ccc2c(-c3cccc(O)c3)nc(=O)n(C(C)C)c2c1,inactive; no positive results
3,O=C1c2ccccc2C(=O)c2ccccc21,inactive; no positive results
4,ClCc1ccccn1,inactive; no positive results
5,C=C1C[C@]23C[C@@]1(O)CC[C@H]2[C@@]12C=C[C@H](O)[C@@](C)(C(=O)O1)[C@H]2[C@@H]3C(=O)O,inactive; no positive results
6,OC[C@@H](O)[C@@H](O)[C@H](O)[C@H](O)CO[C@H]1O[C@H](CO)[C@@H](O)[C@H](O)[C@H]1O,inactive; no positive results
7,Cc1ccccc1OCC(O)CNCCn1cc(C)c(=O)[nH]c1=O (stereo unspecified),inactive; no positive results
8,c1ccc2c(c1)Nc1ccccc1S2,inactive; no positive results
9,CCCCCl,inactive; no positive results
10,O=S(=O)(Oc1ccc(Cl)cc1)c1ccc(Cl)cc1,inactive; no positive results
11,COC(=O)C(c1ccccc1)C1CCCCN1N=O (stereo unspecified),inactive; no positive results
12,O=C([O-])C(=O)O.O=C([O-])C(=O)O.[K+].[K+].[O]=[Ti],inactive; no positive results
13,CCOC(=O)C(C)(C)Oc1ccc(Cl)cc1,inactive; no positive results
14,COc1cc(N)ccc1N=Nc1ccccc1,inactive; no positive results
15,O=CCCCC=O,inactive; no positive results
16,CCC[CH2][Sn]([CH2]CCC)([O]C(C)=O)[O]C(C)=O,inactive; no positive results
17,CNC[C@H](O)c1cccc(O)c1,inactive; no positive results
18,Oc1c(Cl)cc(Cl)cc1Sc1cc(Cl)cc(Cl)c1O,inactive; no positive results
19,O=S(=O)(O)c1cc(S(=O)(=O)O)c2c(N=Nc3ccccc3)c(O)ccc2c1,inactive; no positive results
20,C1C2OC2C2C1C1CC2C2OC12 (stereo unspecified),inactive; no positive results
21,CCc1ccc(C(c2ccc(CC)cc2)C(Cl)Cl)cc1,inactive; no positive results
22,N[C@@H](Cc1c[nH]c2ccccc12)C(=O)O,inactive; no positive results
23,CNc1ncnc2nc[nH]c12,inactive; no positive results
24,C=CCc1ccc(O)c(OC)c1,inactive; no positive results

# Same assay, conditions: TD50_Mouse_Note: positive test results only by intraperitoneal or intravenous injection; TargetSites_Mouse_Female: hematopoietic system
row,SMILES,Potency [mmol/kg/day]
1,O=P1(NCCCl)OCCCN1CCCl (stereo unspecified),0.0194

# Same assay, conditions: TargetSites_Mouse_Female: lung
row,SMILES,Potency [mmol/kg/day]
1,NNCc1ccccc1,0.437
2,Cc1ccc(N)c(C)c1,0.0787

# Same assay, conditions: TargetSites_Mouse_Female: no positive results
row,SMILES,Potency [mmol/kg/day]
1,CN(N=O)c1ncnc2nc[nH]c12,0.101
2,CCN(CC)C(=S)S[Se](SC(=S)N(CC)CC)(SC(=S)N(CC)CC)SC(=S)N(CC)CC,0.00222
3,Nc1ccc(O)c(N)c1,0.726
4,COc1ccc(OC)c(/C=C/c2ccc(N)cc2)c1,0.376
5,O=Nc1ccc(Nc2ccccc2)cc1,1.72

# Same assay, conditions: TargetSites_Mouse_Female: stomach
row,SMILES,Potency [mmol/kg/day]
1,Nc1nc(-c2ccc([N+](=O)[O-])o2)cs1,0.0373

# Same assay, conditions: TargetSites_Mouse_Female: urinary bladder; vascular system
row,SMILES,Potency [mmol/kg/day]
1,Nc1ccc(Oc2ccc(Cl)cc2)cc1,1.58
